Source: ChEMBL document CHEMBL1667744, “Structure--activity relationship studies of 1-(4-chloro-2,5-dimethoxyphenyl)-3-(3-propoxypropyl)thiourea, a non-nucleoside reverse transcriptase inhibitor of human immunodeficiency virus type-1” (Eur J Med Chem, 2011)
pIC50: −log10 of the molar value.

Tested on: Human immunodeficiency virus 1
Test: Antiviral activity against HIV1 pseudovirus infected in human B cell assessed as inhibition of infection at 5 uM after 48 to 72 hrs by flow cytometry
Type: functional
Conditions: Human immunodeficiency virus 1, B

SMILES | inhibition at 5 µM [%]
COc1cc(N=C(S)NCCCO)c(OC)cc1Cl | 92
CCCOCCCNC(=S)Nc1cc(OCC)c(Cl)cc1OCC | 58
CCCOCCCNC(=S)Nc1cc(OCCC)c(Cl)cc1OCCC | 107
CCCOCCCNC(=S)Nc1cc(OC)c([N+](=O)[O-])cc1OC | 107
CCCOCCCNC(=O)Nc1cc(OC)c(Cl)cc1OC | 47
CCCCCCCNC(=O)Nc1cc(OC)c(Cl)cc1OC | 89
CCCOCCNC(=S)Nc1cc(OC)c(Cl)cc1OC | 46
COCCCNC(=S)Nc1cc(OC)c(Cl)cc1OC | 105
CCOCCCNC(=S)Nc1cc(OC)c(Cl)cc1OC | 66
CCCCCCNC(=S)Nc1cc(OC)c(Cl)cc1OC | 87
CCCCCCCNC(=S)Nc1cc(OC)c(Cl)cc1OC | 87
CCCCCCNC(=S)Nc1cc(OCC)c(Cl)cc1OCC | 107
CCCCCCCNC(=S)Nc1cc(OCC)c(Cl)cc1OCC | 69
CCCSCCCNC(=S)Nc1cc(OC)c(Cl)cc1OC | 24
CCC[S+]([O-])CCCNC(=S)Nc1cc(OC)c(Cl)cc1OC (stereo not drawn) | 91
CCCNCCCNC(=S)Nc1cc(OC)c(Cl)cc1OC | 83
CCCC(=O)OCCCN/C(=N/c1cc(OC)c(Cl)cc1OC)SC(=O)CCC | 87

SMILES | inhibition at 5 µM [%]
CCCC(=O)OCCCNC(=S)Nc1cc(OC)c(Cl)cc1OC | 65
CCC(=O)OCCCNC(=S)Nc1cc(OC)c(Cl)cc1OC | 86
COc1cc(NC(=S)NCCCOC(C)=O)c(OC)cc1Cl | 123
CCCCOC(=O)CCNC(=S)Nc1cc(OC)c(Cl)cc1OC | 43
CCCOC(=O)CCNC(=S)Nc1cc(OC)c(Cl)cc1OC | 66
COC(=O)CCNC(=S)Nc1cc(OC)c(Cl)cc1OC | 56
CCOC(=O)CCNC(=S)Nc1cc(OC)c(Cl)cc1OC | 66
COc1cc(NC(=S)NCCC(=O)O)c(OC)cc1Cl | 91
COC(=O)CCCNC(=S)Nc1cc(OC)c(Cl)cc1OC | 73
CCOC(=O)CCCNC(=S)Nc1cc(OC)c(Cl)cc1OC | 24
CCCOC(=O)CCCNC(=S)Nc1cc(OC)c(Cl)cc1OC | 17
CCCCOC(=O)CCCNC(=S)Nc1cc(OC)c(Cl)cc1OC | 29
CCCNC(=O)CCCNC(=S)Nc1cc(OC)c(Cl)cc1OC | 69
CCCSC(=O)CCCNC(=S)Nc1cc(OC)c(Cl)cc1OC | 79
COC(=O)CCCNC(=O)Nc1cc(OC)c(Cl)cc1OC | 87
CCOC(=O)CCCNC(=O)Nc1cc(OC)c(Cl)cc1OC | 65
COc1cc(NC(=S)N2CCCC2=O)c(OC)cc1Cl | 104

Tested on: Human immunodeficiency virus 1
Test: Antiviral activity against HIV1 pseudovirus infected in human B cell assessed as inhibition of infection
Type: functional, organism-based
Conditions: Human immunodeficiency virus 1, B

pIC50 | SMILES
8.96 | CCCOC(=O)CCCNC(=S)Nc1cc(OC)c(Cl)cc1OC
6.77 | CCCOCCCNC(=S)Nc1cc(OC)c(Cl)cc1OC

Tested on: not listed separately
Test: Cytotoxicity against HIV1 pseudovirus infected in human B cells
Type: cell-based
Conditions: b cell

SMILES | Activity
CCCSCCCNC(=O)Nc1cc(OC)c(Cl)cc1OC | Toxic
CCCN(CCCNC(=S)Nc1cc(OC)c(Cl)cc1OC)C(=O)OC(C)(C)C | Toxic
